According to the NIST ThermoML archive (doi:10.1016/j.jct.2011.12.013):
Numbers after ± are expanded uncertainties.

Assay: xn = mol fraction of the nth substance listed
Details: Liquid, Custom Made Vibrating Tube Densimeter

C=C1CC[C@H]2C[C@@H]1C2(C)C [(1S,5S)-6,6-dimethyl-2-methylenebicyclo[3.1.1]heptane] + C=C(C)[C@H]1CC=C(C)CC1
mass density [kg/m3]
Details	x2 = 0	x2 = 0.11	x2 = 0.2008	x2 = 0.289	x2 = 0.3961	x2 = 0.4938	x2 = 0.5906	x2 = 0.6984	x2 = 0.7993	x2 = 0.9022
283.15 K, 20000 kPa	891.3 ± 1	888.1 ± 1	885.4 ± 1	882.8 ± 1	879.6 ± 1	876.8 ± 1.1	873.9 ± 1.1	870.9 ± 1.1	868 ± 1.1	864.5 ± 1.1
283.15 K, 25000 kPa	894.2 ± 1	891 ± 1	888.3 ± 1	885.7 ± 1	882.4 ± 1	879.6 ± 1.1	876.8 ± 1.1	873.7 ± 1.1	870.8 ± 1.1	867.8 ± 1.1
283.15 K, 30000 kPa	897 ± 1	893.9 ± 1	891 ± 1	888.4 ± 1	885.2 ± 1	882.5 ± 1.1	879.7 ± 1.1	876.5 ± 1.1	873.6 ± 1.1	870.4 ± 1.1
283.15 K, 35000 kPa	899.9 ± 1	896.7 ± 1	893.8 ± 1	891.2 ± 1	887.9 ± 1	885.2 ± 1.1	882.4 ± 1.1	879.3 ± 1.1	876.5 ± 1.1	873.3 ± 1.1
283.15 K, 40000 kPa	902.6 ± 1	899.3 ± 1	896.3 ± 1	894 ± 1	890.6 ± 1	887.8 ± 1.1	885.1 ± 1.1	881.9 ± 1.1	879.2 ± 1.1	876 ± 1.1
298.15 K, 20000 kPa	880.2 ± 1	877 ± 1	874.1 ± 1	871.8 ± 1	868.7 ± 1	865.8 ± 1.1	863 ± 1.1	859.9 ± 1.1	857.2 ± 1.1	854.3 ± 1.1
298.15 K, 25000 kPa	883.3 ± 1	880.1 ± 1	877.2 ± 1	874.9 ± 1	871.8 ± 1	868.9 ± 1.1	866.2 ± 1.1	863.1 ± 1.1	860.2 ± 1.1	857.3 ± 1.1
298.15 K, 30000 kPa	886.3 ± 1	883.1 ± 1	880.3 ± 1	877.9 ± 1	874.8 ± 1	871.9 ± 1.1	869.2 ± 1.1	866.2 ± 1.1	863.3 ± 1.1	860.3 ± 1.1
298.15 K, 35000 kPa	889.3 ± 1	886.1 ± 1	883.5 ± 1	881 ± 1	877.7 ± 1	874.9 ± 1.1	872.3 ± 1.1	869 ± 1.1	866.5 ± 1.1	863.4 ± 1.1
298.15 K, 40000 kPa	892.2 ± 1	889 ± 1	886.5 ± 1	883.9 ± 1	880.7 ± 1	878 ± 1.1	875.4 ± 1.1	871.9 ± 1.1	869 ± 1.1	866.1 ± 1.1
313.15 K, 20000 kPa	869.3 ± 1	866.1 ± 1	863.5 ± 1	860.9 ± 1	857.8 ± 1	854.9 ± 1	852.4 ± 1.1	849.3 ± 1.1	846.5 ± 1.1	843.7 ± 1.1
313.15 K, 25000 kPa	872.6 ± 1	869.5 ± 1	866.8 ± 1	864.2 ± 1	861.1 ± 1	858.1 ± 1	855.6 ± 1.1	852.5 ± 1.1	849.8 ± 1.1	847 ± 1.1
313.15 K, 30000 kPa	875.7 ± 1	872.6 ± 1	870.1 ± 1	867.5 ± 1	864.3 ± 1	861.4 ± 1.1	858.7 ± 1.1	855.7 ± 1.1	852.9 ± 1.1	849.9 ± 1.1
313.15 K, 35000 kPa	878.8 ± 1	875.7 ± 1	873.3 ± 1	870.6 ± 1	867.5 ± 1	864.5 ± 1.1	862 ± 1.1	858.7 ± 1.1	856.1 ± 1.1	853 ± 1.1
313.15 K, 40000 kPa	882 ± 1	878.8 ± 1	876.7 ± 1	873.8 ± 1	870.7 ± 1	867.8 ± 1.1	865 ± 1.1	861.8 ± 1.1	859.1 ± 1.1	856 ± 1.1
328.15 K, 20000 kPa	858.2 ± 1	855.3 ± 1	852.6 ± 1	850.1 ± 1	846.9 ± 1	844.3 ± 1	841.5 ± 1.1	838.9 ± 1.1	835.9 ± 1.1	833.1 ± 1.1
328.15 K, 25000 kPa	861.7 ± 1	858.7 ± 1	856 ± 1	853.5 ± 1	850.4 ± 1	847.7 ± 1	844.9 ± 1.1	842.1 ± 1.1	839.4 ± 1.1	836.4 ± 1.1
328.15 K, 30000 kPa	865.2 ± 1	862.1 ± 1	859.5 ± 1	857 ± 1	853.9 ± 1	851.2 ± 1	848.5 ± 1.1	845.4 ± 1.1	842.7 ± 1.1	839.7 ± 1.1
328.15 K, 35000 kPa	868.7 ± 1	865.5 ± 1	862.7 ± 1	860.3 ± 1	857.2 ± 1	854.6 ± 1	851.9 ± 1.1	848.7 ± 1.1	846.1 ± 1.1	843.1 ± 1.1
328.15 K, 40000 kPa	872.2 ± 1	868.8 ± 1	866.1 ± 1	863.7 ± 1	860.7 ± 1	857.8 ± 1	855.3 ± 1.1	852 ± 1.1	849.4 ± 1.1	846.8 ± 1.1
343.15 K, 20000 kPa	847.7 ± 1	844.7 ± 1	842.1 ± 1	839.6 ± 1	836.7 ± 1	834 ± 1	831.4 ± 1.1	828.4 ± 1.1	825.7 ± 1.1	822.7 ± 1.1
343.15 K, 25000 kPa	851.4 ± 1	848.4 ± 1	845.8 ± 1	843.5 ± 1	840.3 ± 1	837.6 ± 1	834.9 ± 1.1	832 ± 1.1	829.1 ± 1.1	826.3 ± 1.1
343.15 K, 30000 kPa	855 ± 1	852 ± 1	849.4 ± 1	846.9 ± 1	843.9 ± 1	841.2 ± 1	838.6 ± 1.1	835.6 ± 1.1	832.9 ± 1.1	830 ± 1.1
343.15 K, 35000 kPa	858.6 ± 1	855.5 ± 1	853.1 ± 1	850.6 ± 1	847.4 ± 1	844.8 ± 1	842.3 ± 1.1	839.1 ± 1.1	836.7 ± 1.1	833.6 ± 1.1
343.15 K, 40000 kPa	862.1 ± 1	859 ± 1	856.7 ± 1	854 ± 1	850.8 ± 1	848.3 ± 1	845.6 ± 1.1	842.4 ± 1.1	840.1 ± 1.1	837.1 ± 1.1
358.15 K, 20000 kPa	837 ± 1	834 ± 1	831.4 ± 1	829.2 ± 1	826.3 ± 1	823.7 ± 1	821 ± 1.1	818.2 ± 1.1	815.6 ± 1.1	812.5 ± 1.1
358.15 K, 25000 kPa	840.9 ± 1	838 ± 1	835.4 ± 1	833 ± 1	830.1 ± 1	827.4 ± 1	824.9 ± 1.1	822 ± 1.1	819.4 ± 1.1	816.7 ± 1.1
358.15 K, 30000 kPa	844.8 ± 1	841.9 ± 1	839.2 ± 1	836.8 ± 1	833.8 ± 1	831.2 ± 1	828.6 ± 1.1	825.7 ± 1.1	823 ± 1.1	820 ± 1.1
358.15 K, 35000 kPa	848.7 ± 1	845.7 ± 1	843 ± 1	840.6 ± 1	837.5 ± 1	834.9 ± 1	832.4 ± 1.1	829.4 ± 1.1	826.8 ± 1.1	823.9 ± 1.1
358.15 K, 40000 kPa	852.6 ± 1	849.6 ± 1	846.8 ± 1	844.6 ± 1	841.4 ± 1	838.7 ± 1	836.2 ± 1.1	833.1 ± 1.1	830.3 ± 1.1	827.3 ± 1.1
